Experimental data published in PubChem BioAssay AID624344 (Sanford-Burnham Center for Chemical Genomics, 2012).
Calls of active or inactive are those of the source. The rule behind the calls is not given here.

Assays:
Cytotoxicity = test: NFkB reporter suppression in cystic fibrosis bronchial cells – cell-based, uHTS hits, panel, cytotoxicity readout, dose response (AID 624344); settings: CF bronchial epithelial cells, mean of runs
[1] = as above; settings: CF bronchial epithelial cells, PAF-induced NFkB reporter inhibition; with PAF, mean of runs

Row | Structure (SMILES) | IC50 (Cytotoxicity) | IC50 [1]
1 | CN(C)/C=C/C(=O)c1ccc2noc(-c3ccccc3)c2c1 | 10.8 µM | 3.54 µM
2 | COc1ccc(-c2csc3ncnc(NCCO)c23)cc1 | 54 µM (inactive) | 1.85 µM
3 | COc1cccc(-c2ccc3ncnc(NCc4ccc5c(c4)OCO5)c3c2)c1 | 18.1 µM | 1.61 µM
4 | CC1=C(C(=O)OCc2ccc3c(c2)OCO3)C(c2cccc([N+](=O)[O-])c2)NC(=O)N1 (stereo unspecified) | > 79 µM (inactive) | 2.71 µM
5 | O=C(COc1ccc(Cl)cc1)Nc1ncc([N+](=O)[O-])s1 | 3.32 µM | 1.02 µM
6 | CC(=O)OC1CCC2(C)C(CCC3C4CC=C(C(C)=O)C4(C)OC(=O)CC32)C1 (stereo unspecified) | 5.07 µM | 0.972 µM
7 | Cn1c(Sc2ccc(Cl)cc2)c(C=O)c2ccccc21 | 17.3 µM | 2.48 µM
8 | COc1ccc2[nH]c3c(c2c1)CCN1C(=O)C(CC(=O)NCCC2=CCCCC2)C[C@H](C(=O)N2CCCCC2)[C@@]31CCc1ccccc1 (stereo partly specified) | 44.1 µM | 8.09 µM
9 | COc1cc(CN(C)c2ccc(S(=O)(=O)N3CCCC3)cn2)ccc1OC(F)F | > 79 µM (inactive) | 0.453 µM
10 | C[C@@H](NC(=O)c1coc(=O)c(Br)c1)c1ccccc1 | 4.95 µM | 4.1 µM
11 | CCN1CCN(Cc2ccc(NC(=O)c3ccc(C)c(NC(=O)c4ccno4)c3)cc2C(F)(F)F)CC1 | > 79 µM (inactive) | < 0.15 µM
12 | COc1ccc2[nH]c(=O)c(CN(Cc3cccnc3)S(=O)(=O)c3ccccc3F)cc2c1 | 3.68 µM | 2.1 µM
13 | COc1ccc(C(=O)N[C@H](C(=O)Nc2nc3ccccc3[nH]2)C(C)C)cc1 | > 79 µM (inactive) | 14.6 µM
14 | COc1ccc(-c2cncnc2-c2ccc(OC)cc2O)cc1 | > 79 µM (inactive) | 4.39 µM
15 | Cc1ccc(S(=O)(=O)Nc2cccc3ncccc23)s1 | > 79 µM (inactive) | 1.48 µM
16 | Cn1c(Oc2ccc(Cl)cc2)c(C=O)c2ccccc21 | 13.5 µM | 3.96 µM
17 | Cc1ccc2[nH]cc(C(=O)CCl)c2c1 | 4.07 µM | 2.32 µM
18 | Cc1cc(C)c(C#N)c(SCC(=O)c2ccc(Cl)cc2Cl)n1 | 14.8 µM | 6.02 µM
19 | Nc1ncc([N+](=O)[O-])c(N2CCCCCC2)n1 | > 79 µM (inactive) | 2.28 µM
20 | Cc1csc(CNc2ncnc3ccc(-c4ccoc4)cc23)c1 | 13.8 µM | < 0.3 µM
21 | C=CCOc1c(OC)cc(/C=N/Nc2cccc(C(=O)O)c2)c(Br)c1Br | 44.5 µM | 15.3 µM

Row | Structure (SMILES) | IC50 (Cytotoxicity) | IC50 [1]
22 | O=C(O)/C=C/c1ccc2c(-c3ccccc3)onc2c1 | 4.73 µM | 1.81 µM
23 | COc1ccc(CNC(=O)C(c2ccc(O)cc2)N(Cc2ccco2)C(=O)c2snc(C(N)=O)c2N)cc1 (stereo unspecified) | 5 µM | 4.58 µM
24 | Cc1[nH]nc2c1-c1nc3ccccc3nc1C(C)(C)C2 | > 79 µM (inactive) | 10.4 µM
25 | CN(C)c1ccnc2sc3c(=O)n(Cc4ccccc4)cnc3c12 | > 79 µM (inactive) | 1.27 µM
26 | COC(=O)c1ccc(NC(=O)c2ccccc2NS(=O)(=O)c2ccccc2)cc1 | 39 µM | 4.53 µM
27 | CCN1CCN(Cc2ccc(NC(=O)c3ccc(C)c(NC(=O)C(=O)c4c[nH]c5ccccc45)c3)cc2C(F)(F)F)CC1 | 10.4 µM | 1.27 µM
28 | CN(C)c1ccc(Nc2ncnc3ccc(Br)cc23)cc1 | 15.9 µM | 1.66 µM
29 | Nc1nc(N)nc(-c2ccc(Cl)c(Cl)c2)n1 | 20.3 µM | 2.78 µM
30 | COc1cc(O)cc2cc3c(c(O)c12)C(=O)CC(C)(O)O3 (stereo unspecified) | 45.5 µM | 4.17 µM
31 | CN(Cc1ccco1)c1ncnc2ccc(-c3ccoc3)cc12 | 50.9 µM (inactive) | 8.08 µM
32 | COc1ccc2c(c1)[nH]c1c(C)nccc12 | > 79 µM (inactive) | 3.77 µM
33 | N#Cc1c(Br)n(C2OC(CO)C(O)C2O)c2ncnc(N)c12 (stereo unspecified) | 3.58 µM | 0.444 µM
34 | Cc1cccc(CS(=O)(=O)c2ncc(Cl)c(C(=O)NCc3ccccc3)n2)c1 | 2.27 µM | 2.47 µM
35 | CNc1ccc2ncc(-c3cccc(C(=O)N(C)C)c3)n2n1 | 53.7 µM (inactive) | 0.169 µM
36 | CC(=O)c1cccc(NC(=O)COC(=O)c2ccc(S(C)(=O)=O)c([N+](=O)[O-])c2)c1 | 12.6 µM | 5.26 µM
37 | CC1(Cc2cccc(F)c2)C(=O)Nc2ccc(-c3cccnc3)cc21 (stereo unspecified) | 67.9 µM (inactive) | 1.58 µM
38 | O=C1NC(c2cccc3ccccc23)Nc2ccc(Cl)cc21 (stereo unspecified) | > 79 µM (inactive) | 8.66 µM
39 | O=C(/C=C/c1cccs1)Nc1cccc(NC(=O)/C=C/c2cccs2)n1 | 1.57 µM | 5.98 µM
40 | CC1=C(C(=O)OCc2ccc3c(c2)OCO3)C(c2ccc(O)c([N+](=O)[O-])c2)NC(=O)N1 (stereo unspecified) | > 79 µM (inactive) | 1.71 µM
41 | Cc1ccnc(Nc2nc(-c3sc(C)nc3C)cs2)c1 | 16.6 µM | 5.11 µM
42 | CS(=O)(=O)c1ccc2nc(NC(=O)CCS(=O)(=O)c3ccccc3)sc2c1 | > 79 µM (inactive) | 4.88 µM

Row | Structure (SMILES) | IC50 (Cytotoxicity) | IC50 [1]
43 | Cc1cccc2sc(N(CCCN(C)C)C(=O)CCS(=O)(=O)c3ccccc3)nc12 | 7.52 µM | 3.22 µM
44 | COc1ccc(N(Cc2cc(=O)[nH]c3ccccc23)C(=O)CCl)cc1 | 4.29 µM | 2.89 µM
45 | COc1cccc(-c2ccc3ncnc(NCc4cccc(C)c4)c3c2)c1 | 13 µM | 5.66 µM
46 | O=C(Nc1ccc2ccccc2c1)c1ccccc1O | 2.5 µM | 5.07 µM
47 | O=C(NCc1nc(-c2ccc(C(F)(F)F)cc2)no1)Nc1cc(Cl)cc(Cl)c1 | 5.56 µM | 5.81 µM
48 | CC1(O)CC(c2ccc(Cl)cc2)=NN1C(=O)c1ccc(Cl)cc1 (stereo unspecified) | 14 µM | 5.49 µM
49 | Oc1ccc(Cl)cc1Cc1cc(Cl)ccc1O | 25.2 µM | 6.19 µM
50 | C=CCn1c(Oc2ccccc2F)nc2c1c(=O)n(C)c(=O)n2C | > 79 µM (inactive) | 5.7 µM
51 | Cc1ccc(CSc2nccc(-c3c(C)nc4ccccn34)n2)cc1 | 26.4 µM | 3.18 µM
52 | Cc1c(Cl)cccc1NC(=O)COC(=O)c1c2c(nc3ccccc13)CCN(Cc1ccccc1)C2 | 13.5 µM | 6.85 µM
53 | O=C(Nc1ccccc1)c1cc2ccccc2c(=O)s1 | > 79 µM (inactive) | 5.4 µM
54 | NC(=O)c1c(Br)n(C2OC(CO)C(O)C2O)c2ncnc(N)c12 (stereo unspecified) | 3.07 µM | 2.03 µM
55 | C[C@@H]1CN([C@H](C)CO)C(=O)c2cc(NC(=O)Nc3ccc(C(F)(F)F)cc3)ccc2O[C@H]1CN(C)S(=O)(=O)c1ccc(Cl)cc1 | > 79 µM (inactive) | 14.1 µM
56 | Cc1c(C(=O)c2cccc3ccccc23)c2cccc3c2n1[C@H](CN1CCOCC1)CO3 | 16.3 µM | 7.9 µM
57 | O=c1cc(-c2ccccc2Cl)oc2cc(O)cc(O)c12 | 55.8 µM (inactive) | 5.33 µM
58 | COc1cccc(N2CCN(c3c(C#N)c(C(F)(F)F)nn3C)CC2)c1 | 58.4 µM (inactive) | 2.27 µM
59 | CN1CCC(OC(=O)c2cc3cc(Cl)cc(Cl)c3oc2=O)CC1 | 44.5 µM | 1.64 µM
60 | CCOc1ccc(C(C(=O)NCC2CCCO2)N(Cc2cccs2)C(=O)c2snc(C(N)=O)c2N)cc1 (stereo unspecified) | > 79 µM (inactive) | 3.47 µM
61 | CC(=O)c1ccc(Nc2ncnc3ccc(Br)cc23)cc1 | 37 µM | 2.18 µM
62 | Cc1c(-c2ccccc2)oc2c(C(=O)N3CCN(c4ccc([N+](=O)[O-])cc4)CC3)cccc2c1=O | > 79 µM (inactive) | 0.854 µM
63 | CC(=O)OCCN1c2ccccc2Sc2cnccc21 | 63.5 µM (inactive) | 4.33 µM

Row | Structure (SMILES) | IC50 (Cytotoxicity) | IC50 [1]
64 | COc1cc(C2c3cc4c(c(O)c3CC3COC(=O)C32)OCO4)cc(OC)c1OC (stereo unspecified) | > 79 µM (inactive) | inactive
65 | COc1ccccc1NS(=O)(=O)c1ccc(-c2cnc(C3CC3)o2)cc1 | > 79 µM (inactive) | 16.7 µM
66 | Cn1c(SC2=CS(=O)(=O)c3ccccc32)nc2ccccc21 | 7.01 µM | 1.83 µM
67 | O=C(Nc1ccncc1)c1c(Cl)cccc1Cl | 38.9 µM | 5.03 µM
68 | CCCCCc1cc(O)c2c(C)cc(=O)oc2c1 | 7.62 µM | 4.83 µM
69 | COc1cccc(-c2cnc3c(NC=O)cc(-c4ccc(OC)cc4OC)cn23)c1 | 26 µM | 14.2 µM
70 | COc1ccc(S(=O)(=O)c2c(O)c3ccc(C(=O)Nc4ccccc4Cl)cc3[nH]c2=O)cc1 | 37.8 µM | 7.32 µM
71 | Cc1nc2sc(C(N)=O)c(N)c2c(C)c1CC(=O)c1ccccc1 | > 79 µM (inactive) | 10.7 µM
72 | CCOC(=O)Oc1c(OC)cc(C(=O)O[C@@H]2C[C@@H]3CN4CCc5c([nH]c6cc(OC)ccc56)[C@H]4C[C@@H]3[C@H](C(=O)OC)[C@H]2OC)cc1OC | 58.8 µM (inactive) | 4.91 µM
73 | CC(C)CN=C(NS(=O)(=O)c1ccccc1)C(Cl)(Cl)Cl | 44.5 µM | 2.93 µM
74 | CCOc1ccccc1NC(=S)Nc1ccc2cn[nH]c2c1 | 58.5 µM (inactive) | 5.7 µM
75 | Cn1c(=O)c2c(nc(Oc3ccc4ccccc4c3)n2C)n(C)c1=O | > 79 µM (inactive) | 9.64 µM
76 | CC(=O)Nc1ccc(NC(=O)c2nc(S(=O)(=O)Cc3cccc(C)c3)ncc2Cl)cc1 | 11.5 µM | 5.98 µM
77 | COc1ccc(OC)c(Nc2ncnc3ccc(Br)cc23)c1 | 13.8 µM | 4.6 µM
78 | Cc1ccc(NC(=O)/C=C/c2ccco2)nc1 | > 79 µM (inactive) | 8.27 µM
79 | COc1ccc(-c2oc3ccc(-c4ccc(OC)nc4)cc3c2C#CC2(O)CCCCC2)cc1 | 14.4 µM | 6.05 µM
80 | COc1ccc2c(=O)cc(-c3ccncc3)oc2c1OC | 13.6 µM | 3.97 µM
81 | CC(C)(CO)CNc1ccn2nccc2n1 | 76.7 µM (inactive) | 5.29 µM
82 | CCn1c2ccccc2c2cc(/C=N/O)ccc21 | 46.4 µM | 3.38 µM
83 | CC(=O)Nc1ccc(-c2ccnc3c2CC(C(=O)NCc2ccccc2)O3)cc1 (stereo unspecified) | > 79 µM (inactive) | > 79 µM (inactive)
